Measured values: US20080293759A1, “Method for Treating Cancer Based on the Modulation of Calcineurin” (Centre National De La Recherche, priority 2005, published 2008)

What was measured:
[1] = test system: NFAT2; experiment: ICN1 leukemic cells in culture with CsA or ionomycin, NFAT2 western blot; format: cell-based, mouse; settings: ICN1 leukemic cells maintained in culture for 60 minutes
Procedure: Phosphorylated and de-phosphorylated isoforms are indicated by coloured arrows.
Leukemia-derived primary cells and leukemia cell lines (TEL-JAK2, ICN1 and ERP15-14) were maintained in RPMI 1640 supplemented with 10% foetal calf serum, 100 U/ml penicillin, 100 μg/ml streptomycin, 2 mM glutamine (all from Life Technologies) and […] 2-βmercaptoethanol (Sigma).
Total cellular extracts prepared from cells obtained directly from diseased animals or control littermates or harvested at the indicated times following culture, were resolved by SDS-PAGE and subjected to immunoblot analysis with the indicated antibody (Ab). The NFAT1(sc-7296), NFAT2 (sc-7294), NFAT4 (sc-8321), STAT5 (C-17; sc-835) antibodies were purchased from Santa Cruz Biotechnology. The phosphotyrosine-STAT5 antibody (05-495) was purchased from Upstate Biotechnology. The pan-NFAT Ab (796) was kindly provided by Dr. Nancy Rice.

[2] = test system: NFATc1, NFATc2, NFATc3; experiment: Thymocytes ex vivo with CsA or ionomycin, NFAT western blot; format: cell-based, mouse; settings: unstimulated thymocytes ex vivo, 1 μg/ml, 60 minutes

With `C[C@H](CCC(=O)O)C[C@H](C)C[C@H](C)C(=O)/C=C(\O)[C@H](C)C[C@H](C)C/C=C/[C@@H](C)[C@@H](O)[C@@H](C)[C@@H](O)C[C@@H]1CC[C@@](C)([C@H]2CC[C@@](C)([C@@H](C)O)O2)O1` [ionomycin] the “NFAT2 isoform migration (phosphorylation)” value [1] was “indistinguishable from that observed in ICN1 non-treated leukemic cells” and the “NFATc1, NFATc2, NFATc3 phosphorylation” value [2] was “fully dephosphorylated”.
